Test system: L-1210 leukemia cells
Assay: L-1210 murine leukemia assay (increase in median life span)
Assay type: in vivo, Mice
Conditions: for ILS%: increase in median life span vs untreated controls, at LD10 dose, 5 injections every other day starting one day after transplantation of 10^6 tumor cells/mouse; for LD10 Dose: mice, injected once per day every other day, total of 5 injections; for Cells Remaining: number of neoplastic cells remaining after treatment at LD10 dose, 10^6 tumor cells/mouse transplanted
Method: This is a standard assay that is used to evaluate the efficacy of compounds as antineoplastic agents for treating humans. The assay is described by D. J. Hitchinson, D. C. Robinson, D. Martin, O. L. Ittenson and Dillenberg, Journal Cancer Research, (1962) 22:57-72. It is a procedure for evaluating a compound for increase in median life span in treated animals and unteated controls both infected with L-1210 leukemia cells. […] Mice are injected once per day every other day for a total of 5 injections starting one day after transplantation of 10^6 tumor cells/mouse. The results of this assay with several, 8,10-dideazaminopterin analogs were as follows:
It is apparent from the above results that the life spans of the mice were increased considerably by administration of the invention compound and that this compound has surprising activity when compared to the non-alkylated and n-propyl or methyl analogs. The % ILS data represent comparisons of log values, and thus differences in the % ILS which appear minor mask large differences in cytotoxic activity. Thus, as shown, the ethyl derivative is 40 times as effective as the unsubstituted compound and 100 times as effective as the n-propyl derivative in terms of reducing the number of neoplastic cells; i.e., e.g., the number of cells remaining after 10-ethyl analog treatment is only 1/40 and 1/100 of that remaining from treatment with the above analogs, respectively. The assay and these conclusions are described by Schabel, F. M., Symposium on Proliferation and Spread of Neoplastic Cells, M. D. Anderson, Tumor Institute, Houston, Texas (1968), p. 379 ff.

In the case of 10-Methyl-8,10-dideazaminopterin, the ILS% is reported as “+203%”, the “LD10 Dose” value is reported as 0.6 Mg/Kg and the “Cells Remaining” value is reported as 1000.
In the case of “10-Propyl-8,10-dideazaminopterin [10-n-propyl-8,10-dideazaminopterin]”, the ILS% is reported as “+176%”, the “LD10 Dose” value is reported as 6.0 Mg/Kg and the “Cells Remaining” value is reported as 10,000.
10-ethyl-8,10-dideazaminopterin was tested, and the ILS% was “+235%”, the “LD10 Dose” value was 1.5 Mg/Kg and the “Cells Remaining” value was 100. The “times as effective as the unsubstituted compound in terms of reducing the number of neoplastic cells” value (relative to 8,10-dideazaminopterin, ratio of cells remaining) was 40 times and the “times as effective as the n-propyl derivative in terms of reducing the number of neoplastic cells” value (relative to 10-n-propyl-8,10-dideazaminopterin, ratio of cells remaining) was 100 times.
For `Nc1nc(N)c2nc(CCc3ccc(C(=O)N[C@@H](CCC(=O)O)C(=O)O)cc3)ccc2n1` [8,10-dideazaminopterin], the ILS% was “+189%”, the “LD10 Dose” value was 0.75 Mg/Kg and the “Cells Remaining” value was 4000.
With `CN(Cc1cnc2nc(N)nc(N)c2n1)c1ccc(C(=O)N[C@@H](CCC(=O)O)C(=O)O)cc1` [Methotrexate] the ILS% was “+187%” and the “LD10 Dose” value was 15 Mg/Kg.

Reference: patent EP0166726B1, “10-ETHYL-8,10-DIDEAZAMINOPTERINS” (SRI INTERNATIONAL, priority 1983, dated 1985)
